{"source": "patent US20100003190A1", "about": "“Method for protecting renal tubular epithelial cells from radiocontrast nephropathy (RCN)” (Caritas St. Elizabeth's Medical Center of Boston, Inc., priority 2006, published 2010)", "key": {"[1]": {"assay": "MTT cell viability of HK-2 cells exposed to iodinated radiocontrast media, with or without rhEpo", "assay_type": "cell-based, human", "settings": "human, HK-2 cells (proximal tubular cell line), HK-2 cells, 100 mg iodine/mL contrast media, read-out: reduction of cell viability (MTT); for cytotoxicity at 1 h, 100 mg iodine/mL: 1-hour incubation; for cytotoxicity at 6 h, 100 mg iodine/mL: 6-hour incubation", "method": "(§1) HK-2, a proximal tubular cell line derived from normal human kidney, and LLC-PK1, a proximal renal tubular cell line of porcine origin, were obtained from the American Type Culture Collection ATCC (Manassas, Va.). HK-2 cells were grown in DMEM media (GIBCO) supplemented with 10% FBS (Hyclone), 15 mM HEPES, 2 mM L-glutamine, 50 U/ml penicillin, 50 μg/ml streptomycin (GIBCO), 0.1 μg/ml hydrocortisone, 5 μg/ml insulin, and 5 μg/ml apotransferrin (Sigma, St. Louis, Mo.). LLC-PK1 cells were maintained in medium 199 (GIBCO) supplemented with 10% FBS and penicillin-streptomycin. For the planned experiments, cells were seeded on 24-well plates at a density of 10^4 cells/cm^2 and cultured at 37° C. for 24 hours.\n(§2) […] The cell viability was assessed by the mitochondrial activity in reducing MTT to form […] using a commercially available kit (Cell Proliferation Kit, Roche, Penzberg, Germany). In brief, cells were incubated at 37° C. for 4 hours in 200 μl of serum-free, phenol red free medium containing 20 μl of the MTT labeling reagent. 200 μl of solubilization solution were added to each well and cells were incubated at 37° C. for 24 hours. Aliquots of the incubation medium were transferred to a 96-well microplate and absorbance was measured at 570 nm with the reference of 690 nm using a microplate reader (MRX-II, Dynex)."}, "HK-2 cells": {"tested_on": "HK-2 cells", "assay": "MTT cell viability of HK-2 cells exposed to iodinated radiocontrast media, with or without rhEpo", "assay_type": "cell-based, human", "method": "as §1, §2"}, "LLC-PK1 cells": {"tested_on": "LLC-PK1 cells", "assay": "MTT cell viability of LLC-PK1 cells exposed to iodinated radiocontrast media, with or without rhEpo or darbepoetin", "assay_type": "cell-based, porcine", "settings": "LLC-PK1 cells (data not shown)", "method": "as §1\nCells were exposed to iodinated radiocontrast media (100 mg iodine/ml) for 6 hours at 37° C., then washed twice with Dulbecco PBS solution, and incubated in serum-free culture medium for 24 hours at 37° C. The cell viability was assessed by the mitochondrial activity in reducing MTT to form […] using a commercially available kit (Cell Proliferation Kit, Roche, Penzberg, Germany). […] Aliquots of the incubation medium were transferred to a 96-well microplate and absorbance was measured at 570 nm with the reference of 690 nm using a microplate reader (MRX-II, Dynex)."}, "caspase-3": {"tested_on": "caspase-3", "assay": "Caspase-3 activity (Caspase-Glo 3/7) in LLC-PK1 cells after radiocontrast media", "assay_type": "cell-based, porcine", "method": "Activity of caspase-3 was measured by the degradation of subtype-specific peptide substrate after exposure of LLC-PK1 cells to iohexol or iodixanol. In brief, cells were seeded in 96-well plates and treated with radiocontrast media as described. After removal of the media, 100 μl of the Caspase-Glo 3/7 reagent (Promega, Madison, Wis.) were added to each well, and cells were incubated at room temperature for 1 hour. Luminescence of each sample was measured on a luminometer (Lumat LB9507, EGG Berthold). As a control for specificity, DEVD-CHO (Calbiochem, EMD Biosciences), a caspase-3 inhibitor, was added to appropriate wells during incubation in a final concentration of 50 μM. In parallel, cells were stained in wells with crystal violet and the absorption at 600 nm was measured. For each well, the luminometer data were normalized to the level of crystal violet absorption."}, "[2]": {"settings": "patients with chronic renal failure; cited from earlier work"}, "[3]": {"settings": "renal tubular epithelial cells, co-treatment, cell line not given"}}}
{"compound": "CC(=O)Nc1c(I)c(NC(C)=O)c(I)c(C(=O)O)c1I", "note": "[diatrizoate, 3,5-Diacetamido-2,4,6-triiodobenzoic acid]", "values": [{"measurement": "cytotoxicity at 1 h, 100 mg iodine/mL", "setting": "[1]", "result": 44, "unit": "%"}, {"measurement": "cytotoxicity at 6 h, 100 mg iodine/mL", "setting": "[1]", "result": 99, "unit": "%"}, {"measurement": "toxic effects on renal tubular cells, comparison between contrast media", "setting": "HK-2 cells; HK-2 cells, 6-hour incubation", "result": "more toxicity"}]}
{"compound": "CC(=O)N(CC(O)CN(C(C)=O)c1c(I)c(C(=O)NCC(O)CO)c(I)c(C(=O)NCC(O)CO)c1I)c1c(I)c(C(=O)NCC(O)CO)c(I)c(C(=O)NCC(O)CO)c1I", "note": "(stereo not shown) [iodixanol]", "values": [{"measurement": "cytotoxicity at 1 h, 100 mg iodine/mL", "setting": "[1]", "result": 33, "unit": "%"}, {"measurement": "cytotoxicity at 6 h, 100 mg iodine/mL", "setting": "[1]", "result": 48, "unit": "%"}, {"measurement": "cell damage by radio-contrast agent", "setting": "LLC-PK1 cells", "result": "marked cell damage"}, {"measurement": "effect on caspase-3 activity", "setting": "caspase-3; LLC-PK1 cells, 100 mg iodine/ml", "result": "induced an increase"}]}
{"compound": "CC(=O)N(CC(O)CO)c1c(I)c(C(=O)NCC(O)CO)c(I)c(C(=O)NCC(O)CO)c1I", "note": "(stereo not shown) [iohexol]", "values": [{"measurement": "cytotoxicity at 1 h, 100 mg iodine/mL", "setting": "[1]", "result": 36, "unit": "%"}, {"measurement": "cytotoxicity at 6 h, 100 mg iodine/mL", "setting": "[1]", "result": 60, "unit": "%"}, {"measurement": "cell damage by radio-contrast agent", "setting": "LLC-PK1 cells", "result": "marked cell damage"}]}
{"compound": "C[C@H](O)C(=O)Nc1c(I)c(C(=O)NC(CO)CO)c(I)c(C(=O)NC(CO)CO)c1I", "note": "[iopamidol]", "values": [{"measurement": "elimination half-life", "setting": "[2]", "result": "about 70 hours"}]}
{"compound": "DEVD-CHO", "values": [{"measurement": "effect on radiocontrast-induced increase in caspase-3 activity", "setting": "caspase-3; LLC-PK1 cells, iohexol or iodixanol, co-treatment with inhibitor 50 μM", "result": "abrogated"}]}
{"compound": "rhEpo: Recombinant human erythropoietin, a widely available agent for the treatment of anemia; Epoetin alfa (EPOGEN) purchased from Amgen", "values": [{"measurement": "protective effect against cytotoxic effect of iodixanol", "setting": "HK-2 cells; HK-2 cells, 200 U/ml rhEpo, iodixanol 100 mg iodine/ml", "result": "similarly protective"}, {"measurement": "protective effect against cellular toxicity of iohexol", "setting": "HK-2 cells; HK-2 cells, 6 hours iohexol, three concentrations of rhEpo (0-400 U/ml), dose dependent", "result": "partially reversed"}, {"measurement": "concentration providing ceiling of protective effect", "setting": "HK-2 cells; HK-2 cells, iohexol", "result": 200, "unit": "U/ml"}, {"measurement": "reduction of toxicity of iodixanol (MTT cell viability assay)", "setting": "HK-2 cells; [3]", "result": 20, "unit": "%"}, {"measurement": "reduction of toxicity of iohexol (MTT cell viability assay)", "setting": "HK-2 cells; [3]", "result": 20, "unit": "%"}, {"measurement": "effect on iohexol-induced caspase-3 activation", "setting": "caspase-3; LLC-PK1 cells, co-treatment, rhEpo 200 U/ml", "result": "suppressed"}, {"measurement": "reduction of the induction of caspase-3 activation by iohexol", "setting": "caspase-3; co-treatment of cells with rhEpo", "result": 20, "unit": "%"}]}
